Measurements taken from the supplement of paper PMC10307832.

Key:
Test in all cases: relative viability (nuclei count vs DMSO), 5 days (fraction); higher = more cells survive
[1] = system: NCI-H2347
Summary of the method: (§1)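 Lung cancer cell lines, seeded in 1536-well plates, were treated the following day by pin tool with a single drug or with five library-drug doses (not always all listed) in √10 steps on top of a fixed anchor-drug dose. Cells were fixed and nuclei stained in one step after 5 days, and nuclei were counted. Relative viability is the nuclei count for treated wells divided by that for vehicle wells, reported as medians of duplicate plates.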

[2] = system: UMC-11
Summary of the method: as §1

[3] = system: HCC-15
Summary of the method: as §1

[4] = system: SW 1573
Summary of the method: as §1

[5] = system: NCI-H2126
Summary of the method: as §1

[6] = system: LU99A
Summary of the method: as §1

[7] = system: HOP-62
Summary of the method: as §1

[8] = system: COR-L23
Summary of the method: as §1

[9] = system: HCC-44
Summary of the method: as §1

[10] = system: NCI-H2023
Summary of the method: as §1

[11] = system: NCI-H650
Summary of the method: as §1

[12] = system: NCI-H1651
Summary of the method: as §1

[13] = system: NCI-H1355
Summary of the method: as §1

[14] = system: HARA
Summary of the method: as §1

[15] = system: LC-2-ad
Summary of the method: as §1

[16] = system: ABC-1
Summary of the method: as §1

[17] = system: NCI-H1915
Summary of the method: as §1

[18] = system: NCI-H2085
Summary of the method: as §1

[19] = system: PC-14
Summary of the method: as §1

[20] = system: NCI-H838
Summary of the method: as §1

[21] = system: NCI-H1993
Summary of the method: as §1

[22] = system: EPLC-272H
Summary of the method: as §1

Cc1sc2c(c1C)C(c1ccc(Cl)cc1)=N[C@@H](CC(=O)OC(C)(C)C)c1nnc(C)n1-2 [JQ1] + C[C@@H](Oc1cc(-c2cnn(C3CCNCC3)c2)cnc1N)c1c(Cl)ccc(F)c1Cl [Crizotinib] (partner 1 µM)
relative viability ([1]; first compound 0.04 µM): 0.673 | relative viability ([1]; first compound 0.1265 µM): 0.549 | relative viability ([1]; first compound 0.4 µM): 0.646 | relative viability ([1]; first compound 1.265 µM): 0.555 | relative viability ([1]; first compound 4 µM): 0.431 | relative viability ([2]; first compound 0.04 µM): 0.501 | relative viability ([2]; first compound 0.1265 µM): 0.659 | relative viability ([2]; first compound 0.4 µM): 0.345 | relative viability ([2]; first compound 1.265 µM): 0.0933 | relative viability ([2]; first compound 4 µM): 0.0983 | relative viability ([3]; first compound 0.04 µM): 0.762 | relative viability ([3]; first compound 0.4 µM): 0.75 | relative viability ([3]; first compound 1.265 µM): 0.544 | relative viability ([3]; first compound 4 µM): 0.441 | relative viability ([4]; first compound 0.04 µM): 0.633 | relative viability ([4]; first compound 0.1265 µM): 0.741 | relative viability ([4]; first compound 0.4 µM): 0.678 | relative viability ([4]; first compound 1.265 µM): 0.48 | relative viability ([4]; first compound 4 µM): 0.385 | relative viability ([5]; first compound 0.04 µM): 1.04 | relative viability ([5]; first compound 0.1265 µM): 0.987 | relative viability ([5]; first compound 0.4 µM): 0.901 | relative viability ([5]; first compound 1.265 µM): 0.966 | relative viability ([5]; first compound 4 µM): 0.754 | relative viability ([6]; first compound 0.04 µM): 0.554 | relative viability ([6]; first compound 0.1265 µM): 0.533 | relative viability ([6]; first compound 0.4 µM): 0.278 | relative viability ([6]; first compound 1.265 µM): 0.231 | relative viability ([6]; first compound 4 µM): 0.198 | relative viability ([7]; first compound 0.04 µM): 0.714 | relative viability ([7]; first compound 0.1265 µM): 0.711 | relative viability ([7]; first compound 0.4 µM): 0.299 | relative viability ([7]; first compound 1.265 µM): 0.119 | relative viability ([7]; first compound 4 µM): 0.11 | relative viability ([8]; first compound 0.04 µM): 0.608 | relative viability ([8]; first compound 0.1265 µM): 0.381 | relative viability ([8]; first compound 0.4 µM): 0.46 | relative viability ([8]; first compound 1.265 µM): 0.248 | relative viability ([8]; first compound 4 µM): 0.12 | relative viability ([9]; first compound 0.04 µM): 0.822 | relative viability ([9]; first compound 0.1265 µM): 0.623 | relative viability ([9]; first compound 0.4 µM): 0.397 | relative viability ([9]; first compound 1.265 µM): 0.277 | relative viability ([9]; first compound 4 µM): 0.243 | relative viability ([10]; first compound 0.04 µM): 0.544 | relative viability ([10]; first compound 0.1265 µM): 0.543 | relative viability ([10]; first compound 0.4 µM): 0.485 | relative viability ([10]; first compound 1.265 µM): 0.227 | relative viability ([10]; first compound 4 µM): 0.158 | relative viability ([11]; first compound 0.04 µM): 0.7 | relative viability ([11]; first compound 0.1265 µM): 0.445 | relative viability ([11]; first compound 0.4 µM): 0.343 | relative viability ([11]; first compound 1.265 µM): 0.174 | relative viability ([11]; first compound 4 µM): 0.195 | relative viability ([12]; first compound 0.04 µM): 0.795 | relative viability ([12]; first compound 0.1265 µM): 0.784 | relative viability ([12]; first compound 0.4 µM): 0.701 | relative viability ([12]; first compound 1.265 µM): 0.639 | relative viability ([12]; first compound 4 µM): 0.548 | relative viability ([13]; first compound 0.04 µM): 1.01 | relative viability ([13]; first compound 0.1265 µM): 0.963 | relative viability ([13]; first compound 0.4 µM): 0.768 | relative viability ([13]; first compound 1.265 µM): 0.559 | relative viability ([13]; first compound 4 µM): 0.614 | relative viability ([14]; first compound 0.04 µM): 0.945 | relative viability ([14]; first compound 0.1265 µM): 0.714 | relative viability ([14]; first compound 0.4 µM): 0.337 | relative viability ([14]; first compound 1.265 µM): 0.366 | relative viability ([14]; first compound 4 µM): 0.308 | relative viability ([15]; first compound 0.04 µM): 0.44 | relative viability ([15]; first compound 0.1265 µM): 0.348 | relative viability ([15]; first compound 0.4 µM): 0.308 | relative viability ([15]; first compound 1.265 µM): 0.277 | relative viability ([15]; first compound 4 µM): 0.258 | relative viability ([16]; first compound 0.04 µM): 0.844 | relative viability ([16]; first compound 0.1265 µM): 1.09 | relative viability ([16]; first compound 0.4 µM): 0.988 | relative viability ([16]; first compound 1.265 µM): 0.569 | relative viability ([16]; first compound 4 µM): 0.276 | relative viability ([17]; first compound 0.04 µM): 0.891 | relative viability ([17]; first compound 0.1265 µM): 0.829 | relative viability ([17]; first compound 0.4 µM): 0.735 | relative viability ([17]; first compound 1.265 µM): 0.462 | relative viability ([17]; first compound 4 µM): 0.233 | relative viability ([18]; first compound 0.04 µM): 0.745 | relative viability ([18]; first compound 0.1265 µM): 0.629 | relative viability ([18]; first compound 0.4 µM): 0.651 | relative viability ([18]; first compound 1.265 µM): 0.458 | relative viability ([18]; first compound 4 µM): 0.448 | relative viability ([19]; first compound 0.04 µM): 0.907 | relative viability ([19]; first compound 0.1265 µM): 0.781 | relative viability ([19]; first compound 0.4 µM): 0.776 | relative viability ([19]; first compound 1.265 µM): 0.611 | relative viability ([19]; first compound 4 µM): 0.426 | relative viability ([20]; first compound 0.04 µM): 0.814 | relative viability ([20]; first compound 0.1265 µM): 0.546 | relative viability ([20]; first compound 0.4 µM): 0.415 | relative viability ([20]; first compound 1.265 µM): 0.27 | relative viability ([20]; first compound 4 µM): 0.172 | relative viability ([21]; first compound 0.04 µM): 0.834 | relative viability ([21]; first compound 0.1265 µM): 0.774 | relative viability ([21]; first compound 0.4 µM): 0.728 | relative viability ([21]; first compound 1.265 µM): 0.799 | relative viability ([21]; first compound 4 µM): 0.698 | relative viability ([22]; first compound 0.04 µM): 0.904 | relative viability ([22]; first compound 0.1265 µM): 0.759 | relative viability ([22]; first compound 0.4 µM): 0.885 | relative viability ([22]; first compound 1.265 µM): 0.364 | relative viability ([22]; first compound 4 µM): 0.37
